The data set can be described thus: recombinant UMI read abundance after kanamycin selection (control-corrected) (log10(CPM+1)); higher = more efficient recombination; extreme values may be limits of the assay; sequences stand for … in AGTGCAGAGAAAATCGGCCAGTTTTCTCTGCCTGCAGTCCGCATGCCGTGGGACCCCTTGGGTTCTAACCTGTTGCCTAGATTTATGCAGCGGACTGCCTTTCTCCCAAAGTGATAAACCGG…AGGTTGGTTTCACT; site = the 11-nt donor. An outline of the steps: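 Each donor and donor-binding-loop pair was tracked by a 12-nt UMI on a plasmid carrying a promoterless kanamycin gene. With a second plasmid supplying a fixed target and T7-inducible IS621 bridge recombinase, the pool was plated in Escherichia coli on IPTG (0.07 mM) plus kanamycin or unselected. Sequencing of recombinant UMIs across the donor–target junction gave counts expressed as log10(CPM+1) after replicate averaging and control-derived scaling.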
As for “CTGCGACCATGGACCGGTTTTCCCGGTAATCCGTATTTGCT (site CTGCTACCTAG)”, the “recombinant UMI read abundance (log10)” value came out at 0.

“CTGCGCTCATGGACCGGTTTTCCCGGTAATCCGTATTTGCG (site CTGCGCTCTCG)”: the “recombinant UMI read abundance (log10)” value turned out to be 1.11.

Consider “CTGCGTGCATGGACCGGTTTTCCCGGTAATCCGTATTTGTA (site CTGCGTGCTTA)”, for which the “recombinant UMI read abundance (log10)” value came out at 2.28.

Take “CTGCTATCATGGACCGGTTTTCCCGGTAATCCGTATTTGAC (site CTAGTATCTGT)”: the “recombinant UMI read abundance (log10)” value was 0.

With “CTGCTATCATGGACCGGTTTTCCCGGTAATCCGTATTTGAC (site CTGCTATCTGT)”, the “recombinant UMI read abundance (log10)” value turned out to be 1.26.

As to “CTGCTCCCATGGACCGGTTTTCCCGGTAATCCGTATTTGCT (site CTGCTACCTAG)”, the “recombinant UMI read abundance (log10)” value was 0.

As to “CTGCTCCCATGGACCGGTTTTCCCGGTAATCCGTATTTGCT (site CTGCTCCCTAG)”, the “recombinant UMI read abundance (log10)” value worked out at 1.78.

“CTGCTCCCATGGACCGGTTTTCCCGGTAATCCGTATTTGCT (site CTGCTGCCTAG)”: the “recombinant UMI read abundance (log10)” value worked out at 0.

Turning to “CTGCTCCCATGGACCGGTTTTCCCGGTAATCCGTATTTGCT (site CTGCTTCCTAG)”, the “recombinant UMI read abundance (log10)” value was 0.

As to “CTGCTGCCATGGACCGGTTTTCCCGGTAATCCGTATTTGGC (site CTGCTGCCTGC)”, the “recombinant UMI read abundance (log10)” value was 0.

As for “CTGGAAACATGGACCGGTTTTCCCGGTAATCCGTATTTGTA (site CTGGAAACTTA)”, the “recombinant UMI read abundance (log10)” value was 2.14.

For “CTGGAAACATGGACCGGTTTTCCCGGTAATCCGTATTTGTA (site CTGGAAACTTC)”, the “recombinant UMI read abundance (log10)” value was found to be 0.294.

For the sequence “CTGGAAACATGGACCGGTTTTCCCGGTAATCCGTATTTGTA (site CTGGAAACTTG)”, the “recombinant UMI read abundance (log10)” value amounted to 1.22.

Take “CTGGAAACATGGACCGGTTTTCCCGGTAATCCGTATTTGTA (site CTGGAAACTTT)”: the “recombinant UMI read abundance (log10)” value came to 1.81.

“CTGGAAGCATGGACCGGTTTTCCCGGTAATCCGTATTTGCA (site CTGGAAACTTG)”: the “recombinant UMI read abundance (log10)” value is 0.803.

Consider “CTGGAAGCATGGACCGGTTTTCCCGGTAATCCGTATTTGCA (site CTGGAACCTTG)”, for which the “recombinant UMI read abundance (log10)” value was 0.

Consider “CTGGAAGCATGGACCGGTTTTCCCGGTAATCCGTATTTGCA (site CTGGAAGCTTG)”, for which the “recombinant UMI read abundance (log10)” value came to 1.04.

Take “CTGGAAGCATGGACCGGTTTTCCCGGTAATCCGTATTTGCA (site CTGGAATCTTG)”: the “recombinant UMI read abundance (log10)” value came to 3.42.

On to “CTGGACACATGGACCGGTTTTCCCGGTAATCCGTATTTGAG (site CTGGACACTCT)”, for which the “recombinant UMI read abundance (log10)” value stood at 1.47.

Consider “CTGGAGGCATGGACCGGTTTTCCCGGTAATCCGTATTTGTG (site ATGGAGGCTCA)”, for which the “recombinant UMI read abundance (log10)” value was 0.00337.

Take “CTGGAGGCATGGACCGGTTTTCCCGGTAATCCGTATTTGTG (site CTGGAGGCTCA)”: the “recombinant UMI read abundance (log10)” value came to 1.02.

In the case of “CTGGAGGCATGGACCGGTTTTCCCGGTAATCCGTATTTGTG (site GTGGAGGCTCA)”, the “recombinant UMI read abundance (log10)” value was 0.0315.

Regarding “CTGGAGGCATGGACCGGTTTTCCCGGTAATCCGTATTTGTG (site TTGGAGGCTCA)”, the “recombinant UMI read abundance (log10)” value turned out to be 0.0143.

On to “CTGGATACATGGACCGGTTTTCCCGGTAATCCGTATTTGCA (site CTGGAAACTTG)”, for which the “recombinant UMI read abundance (log10)” value worked out at 1.14.

As to “CTGGATACATGGACCGGTTTTCCCGGTAATCCGTATTTGCA (site CTGGACACTTG)”, the “recombinant UMI read abundance (log10)” value worked out at 1.92.

Regarding “CTGGATACATGGACCGGTTTTCCCGGTAATCCGTATTTGCA (site CTGGAGACTTG)”, the “recombinant UMI read abundance (log10)” value was found to be 0.473.

For “CTGGATACATGGACCGGTTTTCCCGGTAATCCGTATTTGCA (site CTGGATACTTG)”, the “recombinant UMI read abundance (log10)” value is 1.81.

Regarding “CTGGATACATGGACCGGTTTTCCCGGTAATCCGTATTTGTC (site CTGGATACTGA)”, the “recombinant UMI read abundance (log10)” value came out at 1.89.

For the sequence “CTGGGACCATGGACCGGTTTTCCCGGTAATCCGTATTTGGT (site CTGGGACCTAC)”, the “recombinant UMI read abundance (log10)” value was 0.0117.

“CTGGGATCATGGACCGGTTTTCCCGGTAATCCGTATTTGCT (site CTGGGATCTAG)”: the “recombinant UMI read abundance (log10)” value turned out to be 1.9.

On to “CTGGGCGCATGGACCGGTTTTCCCGGTAATCCGTATTTGTA (site CTGGGCGCTTA)”, for which the “recombinant UMI read abundance (log10)” value came out at 1.62.

In the case of “CTGGTATCATGGACCGGTTTTCCCGGTAATCCGTATTTGAA (site CTAGTATCTGT)”, the “recombinant UMI read abundance (log10)” value came out at 2.25.

In the case of “CTGGTATCATGGACCGGTTTTCCCGGTAATCCGTATTTGAA (site CTGGTATCTTT)”, the “recombinant UMI read abundance (log10)” value was 2.5.

Consider “CTGGTTACATGGACCGGTTTTCCCGGTAATCCGTATTTGAG (site CTGGTTACTCT)”, for which the “recombinant UMI read abundance (log10)” value worked out at 1.7.

In the case of “CTGTCAGCATGGACCGGTTTTCCCGGTAATCCGTATTTGGG (site CTGTCAGCTCC)”, the “recombinant UMI read abundance (log10)” value came out at 0.0174.

As to “CTGTCCGCATGGACCGGTTTTCCCGGTAATCCGTATTTGAT (site CTGTCCGCTAT)”, the “recombinant UMI read abundance (log10)” value came to 1.96.

For “CTGTCGACATGGACCGGTTTTCCCGGTAATCCGTATTTGGG (site CAGTCGACTCC)”, the “recombinant UMI read abundance (log10)” value was found to be 0.00865.

Turning to “CTGTCGACATGGACCGGTTTTCCCGGTAATCCGTATTTGGG (site CCGTCGACTCC)”, the “recombinant UMI read abundance (log10)” value worked out at 0.0205.

Turning to “CTGTCGACATGGACCGGTTTTCCCGGTAATCCGTATTTGGG (site CGGTCGACTCC)”, the “recombinant UMI read abundance (log10)” value amounted to 0.012.

With “CTGTCGACATGGACCGGTTTTCCCGGTAATCCGTATTTGGG (site CTGTCGACTCC)”, the “recombinant UMI read abundance (log10)” value was 0.0289.

Regarding “CTGTCTACATGGACCGGTTTTCCCGGTAATCCGTATTTGTT (site CTGTCTACTAA)”, the “recombinant UMI read abundance (log10)” value is 0.252.

For the sequence “CTGTGATCATGGACCGGTTTTCCCGGTAATCCGTATTTGAA (site CTGTGATCTTT)”, the “recombinant UMI read abundance (log10)” value worked out at 2.65.

On to “CTGTGTGCATGGACCGGTTTTCCCGGTAATCCGTATTTGGT (site CTGTGTGCTAC)”, for which the “recombinant UMI read abundance (log10)” value amounted to 1.44.

Take “CTGTTTGCATGGACCGGTTTTCCCGGTAATCCGTATTTGAA (site CTGTTTGCTTT)”: the “recombinant UMI read abundance (log10)” value came to 1.66.

For “CTTCCGACATGGACCGGTTTTCCCGGTAATCCGTATTTGGA (site CTTCCGACTTC)”, the “recombinant UMI read abundance (log10)” value worked out at 0.0169.

For the sequence “CTTCCGGCATGGACCGGTTTTCCCGGTAATCCGTATTTGAT (site CTTCCGGCTAT)”, the “recombinant UMI read abundance (log10)” value amounted to 1.14.

With “CTTCGCTCATGGACCGGTTTTCCCGGTAATCCGTATTTGTA (site CTTCACTCTTA)”, the “recombinant UMI read abundance (log10)” value came out at 1.14.

On to “CTTCGCTCATGGACCGGTTTTCCCGGTAATCCGTATTTGTA (site CTTCCCTCTTA)”, for which the “recombinant UMI read abundance (log10)” value was 0.0134.

In the case of “CTTCGCTCATGGACCGGTTTTCCCGGTAATCCGTATTTGTA (site CTTCGCTCTTA)”, the “recombinant UMI read abundance (log10)” value worked out at 1.8.

Turning to “CTTCGCTCATGGACCGGTTTTCCCGGTAATCCGTATTTGTA (site CTTCTCTCTTA)”, the “recombinant UMI read abundance (log10)” value was determined as 0.00289.

For “CTTCTAACATGGACCGGTTTTCCCGGTAATCCGTATTTGGA (site CTACTAACTTC)”, the “recombinant UMI read abundance (log10)” value worked out at 0.0127.

For the sequence “CTTCTAACATGGACCGGTTTTCCCGGTAATCCGTATTTGGA (site CTCCTAACTTC)”, the “recombinant UMI read abundance (log10)” value is 0.00424.

As for “CTTCTAACATGGACCGGTTTTCCCGGTAATCCGTATTTGGA (site CTGCTAACTTC)”, the “recombinant UMI read abundance (log10)” value stood at 0.00962.

Take “CTTCTAACATGGACCGGTTTTCCCGGTAATCCGTATTTGGA (site CTTCTAACTTC)”: the “recombinant UMI read abundance (log10)” value worked out at 0.0115.

As for “CTTCTCTCATGGACCGGTTTTCCCGGTAATCCGTATTTGAA (site CTTCTCTCTTA)”, the “recombinant UMI read abundance (log10)” value turned out to be 0.

Consider “CTTCTCTCATGGACCGGTTTTCCCGGTAATCCGTATTTGAA (site CTTCTCTCTTC)”, for which the “recombinant UMI read abundance (log10)” value came to 0.199.

Take “CTTCTCTCATGGACCGGTTTTCCCGGTAATCCGTATTTGAA (site CTTCTCTCTTG)”: the “recombinant UMI read abundance (log10)” value turned out to be 0.

“CTTCTCTCATGGACCGGTTTTCCCGGTAATCCGTATTTGAA (site CTTCTCTCTTT)”: the “recombinant UMI read abundance (log10)” value is 0.96.

“CTTGACACATGGACCGGTTTTCCCGGTAATCCGTATTTGAC (site CTTGACACTGT)”: the “recombinant UMI read abundance (log10)” value was 0.445.

As to “CTTGCCCCATGGACCGGTTTTCCCGGTAATCCGTATTTGTG (site CTTGCCCCTCA)”, the “recombinant UMI read abundance (log10)” value was 0.0167.

For the sequence “CTTGTACCATGGACCGGTTTTCCCGGTAATCCGTATTTGAC (site CTAGTATCTGT)”, the “recombinant UMI read abundance (log10)” value was found to be 0.

With “CTTGTACCATGGACCGGTTTTCCCGGTAATCCGTATTTGAC (site CTTGTACCTGT)”, the “recombinant UMI read abundance (log10)” value stood at 0.

For the sequence “CTTGTGGCATGGACCGGTTTTCCCGGTAATCCGTATTTGGG (site CTTGTGGCTCC)”, the “recombinant UMI read abundance (log10)” value stood at 0.00701.

With “CTTGTTGCATGGACCGGTTTTCCCGGTAATCCGTATTTGGT (site CTTGTTGCTAC)”, the “recombinant UMI read abundance (log10)” value came to 1.26.

As for “CTTTCGCCATGGACCGGTTTTCCCGGTAATCCGTATTTGCT (site CTTTCGCCTAG)”, the “recombinant UMI read abundance (log10)” value was determined as 0.0294.

With “CTTTCTCCATGGACCGGTTTTCCCGGTAATCCGTATTTGCT (site CTTTCTCCTAG)”, the “recombinant UMI read abundance (log10)” value was found to be 1.82.

As for “CTTTGCCCATGGACCGGTTTTCCCGGTAATCCGTATTTGAG (site CTTTGCCCTCT)”, the “recombinant UMI read abundance (log10)” value amounted to 0.0229.

For the sequence “CTTTGGGCATGGACCGGTTTTCCCGGTAATCCGTATTTGTC (site CTTTGGGCTGA)”, the “recombinant UMI read abundance (log10)” value turned out to be 0.
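Note: IS621 bridge recombinase in Escherichia coli cells against a fixed T5 target plasmid.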
